According to patent US20260022098A1, “BULLEYACONITINE A DERIVATIVE WITH ANALGESIC ACTIVITY, AND PREPARATION METHOD AND APPLICATION THEREOF” (priority 2023, published 2026):
Read-outs that look alike come from different tables or passages of the source.

Tests used:
Kunming mice [1] = experiment: Calculation of therapeutic index (TI = LD50/ED50); assay type: in vivo
Procedure: (3) Calculation of Therapeutic Index (TI)
The therapeutic index of each compound was calculated based on the median effective dose and the median lethal dose, which were specifically as follows: therapeutic index (TI)=median lethal dose (LD50)/median effective dose (ED50).

Kunming mice [2] = experiment: Acute toxicity / median lethal dose (LD50) determination, subcutaneous injection; assay type: in vivo; set-up: key to Acute toxicity: if death occurred, (+) represented as positive; if no death occurred, (−) represented as negative; conditions: for Acute toxicity: mice administered 20 mg/kg subcutaneously, presence of death within 24 h
Method in brief: (§1)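 Kunming mice (22±2 g, 1:1 male:female, fasted 12 h), 10 per group, given compound subcutaneously at 0.1 mL/10 g in saline after 1:1 molar dissolution in 0.1 mol/L HCl. At least 5 proportional dose groups set from a 20 mg/kg pilot; 24 h survival, LD50 by Probit regression.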

[3] = as above; assay type: in vivo, mice; set-up: key to Acute toxicity: if death occurred, (+) represented as positive; if no death occurred, (−) represented as negative; conditions: both sexes, Kunming, mouse, in vivo, sc; mice, subcutaneous, survival within 24 h, Probit regression; >X = no death or toxic symptoms at X mg/kg
Method in brief: as §1

Kunming mice [4] = experiment: Analgesic activity by acetic acid-induced writhing method (writhing inhibition rate, ED50); assay type: in vivo; conditions: mice, subcutaneous; for ED50: Probit regression; for inhibition in vivo at 0.05 mg/kg / inhibition in vivo at 0.5 mg/kg: read-out: Analgesia rate (%) ± SEM
Method in brief: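 Kunming mice (22±2 g, 1:1 sex, 12 h fasted, 10/group) got compound s.c. (dissolved 1:1 molar with 0.1 mol/L HCl, diluted in saline); 0.7% acetic acid i.p. 15 min later, writhes counted over 15 min. Inhibition rate vs saline blank; ED50 by Probit regression over ≥5 doses.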

[5] = system: LPS-induced RAW 264.7 cells; experiment: Griess assay, inhibition of NO release in LPS-induced RAW 264.7 cells; assay type: cell-based; conditions: Griess method, compound at 30 M (so in the source), 22 h
Procedure: (§2) The effect of the compound to be tested on viability of RAW 264.7 cells at a concentration of […] was assessed through MTT assay (Methylthiazolyldiphenyl-tetrazolium bromide assay), and the inhibition on NO release in the inflammatory response of LPS-induced RAW 264.7 cells at 30 µM was determined through Griess method. Specific methods were described as follows.
RAW264.7 cells beyond third passage were added to a culture medium and gently pipetted to detach, forming a cell suspension. 10 μL of the cell suspension was applied onto a hemocytometer slide for counting, and cells were seeded into a 96-well plate at a density of 3×10^4 cells per well with 100 μL of the cell suspension per well. After incubated at 37° C. with […] for 24 h, supernatant was removed. The blank group received 100 μL of DMSO (1/1000 dilution) per well, a LPS (lipopolysaccharide) group received 100 μL of DMSO (1/1000 dilution) per well, and the experimental groups received 100 μL of the test samples per well. The LPS group received 1 μg/ml of LPS by […] per well, and the experimental groups received […] of LPS by 3 μg per well. After 22 h, 50 μL of supernatant was transferred into another 96-well plate, added with Griess Reagent I in a NO assay kit by 50 μL per well, then added with Griess Reagent II by 50 μL per well, and subjected to an absorbance test at 562 nm. Nitric oxide (NO) concentration was calculated based on a standard curve, which was specifically as follows: NO inhibition rate (%)=(ODLPS−ODTest)/(ODLPS−ODBlank)×100).

RAW 264.7 cells = experiment: MTT assay, viability of RAW 264.7 cells; assay type: cell-based; conditions: compound diluted to 30 mol/L (so in the source), 12 h
Procedure: as §2
An MTT solution (5 mg/mL) was prepared with a PBS buffer, filter-sterilized through a 0.22 μm filter membrane, and stored protected from light at low temperature. Each compound was dissolved in DMSO to prepare a 50 mmol/L stock solution, and stored from light at low (frozen) temperature. The stock solution was diluted to 30 mol/L with DMEM (Dulbecco's modified Eagle's medium) containing 10% FBS (fetal bovine serum). RAW264.7 cells beyond third passage were added to a culture medium and gently pipetted to detach, forming a cell suspension. 10 μL of the cell suspension was applied onto a hemocytometer slide for counting, and cells were seeded into 96-well plates at a density of 6×10^3 cells per well with 100 μL of the cell suspension per well. After incubated at 37° C. with 5% CO2 for 24 h, supernatant was removed. A zero-adjustment group (CO group) received 100 μL of medium per well, the blank group (CK group) received 100 μL of DMSO (1/1000 dilution) per well, and the experimental groups received 100 μL of the test samples per well. After 12 h, supernatant was removed, and […] of MTT solution was added into each well at 120 μL per well. After incubated in COz at a constant temperature for 4 h, supernatant was removed, and DMSO was added into each well by 150 μL per well. The mixture was shaken at 50 r/min for 10 min and subjected to an absorbance test at 492 nm. Relative cell viability (x) was calculated through a formula as follows: relative cell viability (%)=(ODTest−ODCO)/(ODCK−ODCO)×100%.

Kunming mice [6] = conditions: reported value used as preliminary screening concentration; cited from earlier work
[7] = Mus musculus, sc, acetic acid-induced writhing, read-out: ED50
[8] = Mus musculus, sc, dosing concentration 0.05 mg/kg, acetic acid-induced writhing
[9] = Mus musculus, sc, dosing concentration 0.5 mg/kg, acetic acid-induced writhing

In the case of `CCO[C@]12C[C@H](OC)[C@@]3(OC(=O)c4ccc(Cl)cc4)CC(C1[C@H]3OC(=O)c1ccc(OC)cc1)[C@]13C4[C@@H](OC)C2[C@H]1N(CC)C[C@]4(COC)CC[C@@H]3OC` (some centres unmarked) [Compound 83], the TI (Kunming mice [1]) is reported as 524.9, the Acute toxicity (Kunming mice [2]) is reported as “−” and the LD50 [3] is reported as 76.6 mg/kg. The ED50 (Kunming mice [4]; [7]) was 0.146 mg/kg, the inhibition in vivo at 0.05 mg/kg (Kunming mice [4]; [8]) was 47 ± 0.9% and the inhibition in vivo at 0.5 mg/kg (Kunming mice [4]; [9]) was 70.8 ± 1.2%. For the same compound, the “Inflammatory NO inhibition rate” value [5] was 50 ± 4.52 % and the RAW cell viability (RAW 264.7 cells) was 85.21 ± 7.83 ^ %.
In the case of `CCO[C@]12C[C@H](OC)[C@@]3(OC(=O)c4ccc(F)cc4)CC(C1[C@H]3OC(=O)c1ccc(OC)cc1)[C@]13C4[C@@H](OC)C2[C@H]1N(CC)C[C@]4(COC)CC[C@@H]3OC` (some centres unmarked) [Compound 60], the TI (Kunming mice [1]) is reported as >819.7, the Acute toxicity (Kunming mice [2]) is reported as “−” and the LD50 [3] is reported as > 100 mg/kg. For the same compound, the ED50 (Kunming mice [4]; [7]) was 0.122 mg/kg, the inhibition in vivo at 0.05 mg/kg (Kunming mice [4]; [8]) was 50 ± 1.4% and the “Inflammatory NO inhibition rate” value [5] was 2 ± 2.82 %. For the same compound, the RAW cell viability (RAW 264.7 cells) was 96.09 ± 7.95 ns %.
For `CCO[C@]12C[C@H](OC)[C@@]3(OC(=O)c4ccccc4F)CC(C1[C@H]3OC(=O)c1ccccc1F)[C@]13C4[C@@H](OC)C2[C@H]1N(CC)C[C@]4(COC)CC[C@@H]3OC` (some centres unmarked) [Compound 69], the TI (Kunming mice [1]) was >943.4, the Acute toxicity (Kunming mice [2]) was “−” and the LD50 [3] was > 100 mg/kg. The ED50 (Kunming mice [4]; [7]) was 0.106 mg/kg, the inhibition in vivo at 0.05 mg/kg (Kunming mice [4]; [8]) was 40.3 ± 0.7% and the inhibition in vivo at 0.5 mg/kg (Kunming mice [4]; [9]) was 60.6 ± 1.9%. For the same compound, the “Inflammatory NO inhibition rate” value [5] was 40 ± 3.46 % and the RAW cell viability (RAW 264.7 cells) was 95.11 ± 5.66 ns %.
With `CCO[C@]12C[C@H](OC)[C@@]3(OC(=O)c4ccco4)CC(C1[C@H]3OC(=O)c1ccc(OC)cc1)[C@]13C4[C@@H](OC)C2[C@H]1N(CC)C[C@]4(COC)CC[C@@H]3OC` (some centres unmarked) [Compound 15] the TI (Kunming mice [1]) was 773, the Acute toxicity (Kunming mice [2]) was “−” and the LD50 [3] was 56.4 mg/kg. The ED50 (Kunming mice [4]; [7]) was 0.073 mg/kg, the inhibition in vivo at 0.05 mg/kg (Kunming mice [4]; [8]) was 57.6 ± 1.3% and the “Inflammatory NO inhibition rate” value [5] was 5 ± 2.17 %. For the same compound, the RAW cell viability (RAW 264.7 cells) was 104.18 ± 6.16 ns %.
For Bulleyaconitine A [reference compound], the TI (Kunming mice [1]) was 19.2, the Acute toxicity (Kunming mice [2]) was “+” and the LD50 (Kunming mice [2]; mice, subcutaneous, survival within 24 h, Probit regression, >X = no death or toxic symptoms at X mg/kg) was 0.92 mg/kg. For the same compound, the “reported median effective dose (ED50)” value (Kunming mice [6]) was 0.05 mg/kg, the ED50 (Kunming mice [4]; acetic acid-induced writhing) was 0.048 mg/kg and the “Analgesia rate (%) ± SEM” value (Kunming mice [4]; dosing concentration 0.05 mg/kg, acetic acid-induced writhing) was 54.80 ± 1.8 %. For the same compound, the “Analgesia rate: unable to test owing to significant toxicity or death in mice” value (Kunming mice [4]; dosing concentration 0.5 mg/kg) was “−^a”, the “Inflammatory NO inhibition rate” value [5] was 13 ± 6.84 % and the RAW cell viability (RAW 264.7 cells) was 85.80 ± 7.31 ^ %.
For `CCO[C@]12C[C@H](OC)[C@@]3(OC(=O)c4ccco4)CC(C1[C@H]3OC(=O)c1ccco1)[C@]13C4[C@@H](OC)C2[C@H]1N(CC)C[C@]4(COC)CC[C@@H]3OC` (some centres unmarked) [Compound 6], the TI (Kunming mice [1]) was >8695.7, the Acute toxicity (Kunming mice [2]) was “−” and the LD50 [3] was > 600 mg/kg. For the same compound, the ED50 (Kunming mice [4]; [7]) was 0.069 mg/kg, the inhibition in vivo at 0.05 mg/kg (Kunming mice [4]; [8]) was 59.8 ± 2.3% and the “Inflammatory NO inhibition rate” value [5] was 22 ± 4.41 %. The RAW cell viability (RAW 264.7 cells) was 92.23 ± 1.29 ns %.
For `CCO[C@]12C[C@H](OC)[C@@]3(OC(=O)c4cccnc4)CC(C1[C@H]3OC(=O)c1cccnc1)[C@]13C4[C@@H](OC)C2[C@H]1N(CC)C[C@]4(COC)CC[C@@H]3OC` (some centres unmarked) [Compound 27], the TI (Kunming mice [1]) was >18181.8, the Acute toxicity (Kunming mice [2]) was “−” and the LD50 [3] was > 600 mg/kg. For the same compound, the ED50 (Kunming mice [4]; [7]) was 0.033 mg/kg, the inhibition in vivo at 0.05 mg/kg (Kunming mice [4]; [8]) was 62 ± 1.6% and the “Inflammatory NO inhibition rate” value [5] was 7 ± 2.16 %. The RAW cell viability (RAW 264.7 cells) was 87.20 ± 7.66 ^ %.
In the case of `CCO[C@]12C[C@H](OC)[C@@]3(OC(=O)c4ccccc4)CC(C1[C@H]3OC(=O)c1ccccc1)[C@]13C4[C@@H](OC)C2[C@H]1N(CC)C[C@]4(COC)CC[C@@H]3OC` (some centres unmarked) [Compound 52], the TI (Kunming mice [1]) is reported as >208.8, the Acute toxicity (Kunming mice [2]) is reported as “−” and the LD50 [3] is reported as > 100 mg/kg. The ED50 (Kunming mice [4]; [7]) was 0.479 mg/kg, the inhibition in vivo at 0.05 mg/kg (Kunming mice [4]; [8]) was 47 ± 1.8% and the inhibition in vivo at 0.5 mg/kg (Kunming mice [4]; [9]) was 64.2 ± 1.3%. The RAW cell viability (RAW 264.7 cells) was 7.00 ± 0.98 %.
In the case of `CCN1C[C@]2(COC)CC[C@H](OC)[C@@]34C5C[C@]6(OC(=O)c7cccnc7)[C@@H](OC)C[C@@](OC(C)=O)(C5[C@H]6OC(=O)c5ccc(OC)cc5)C([C@H](OC)C23)[C@@H]14` (some centres unmarked) [Compound 29], the TI (Kunming mice [1]) is reported as 27.9, the Acute toxicity (Kunming mice [2]) is reported as “−” and the LD50 [3] is reported as 41.2 mg/kg. For the same compound, the ED50 (Kunming mice [4]; [7]) was 1.48 mg/kg, the inhibition in vivo at 0.05 mg/kg (Kunming mice [4]; [8]) was 47.9 ± 1.8% and the inhibition in vivo at 0.5 mg/kg (Kunming mice [4]; [9]) was 65.6 ± 1.3%. The “Inflammatory NO inhibition rate” value [5] was 20 ± 1.12 % and the RAW cell viability (RAW 264.7 cells) was 116.43 ± 15.6 ^ %.
